Measured values from ChEMBL document CHEMBL6078649, “Discovery of Chalcone Derivatives as Bifunctional Molecules with Anti-SARS-CoV-2 and Anti-inflammatory Activities” (J Nat Prod, 2024).

Columns and labels:
[1] = tested on: RAW264.7; assay: Anti-inflammatory activity against mouse RAW264.7 cells assessed as inhibition of LPS-induced NO production at 1 uM preincubated for 1 hr followed by LPS treatment measured after 24 hrs relative to control; assay type: functional; settings: time 25 hrs
[2] = Cytotoxicity against mouse RAW264.7 cells assessed as cell viability at 50 uM incubated for 24 hrs by CCK8 assay relative to control; assay type: toxicity, cell-based; settings: read-out: Activity
[3] = Cytotoxicity against mouse RAW264.7 cells assessed as cell viability at 1 uM incubated for 24 hrs by CCK8 assay relative to control; assay type: toxicity, cell-based; settings: read-out: Activity
[4] = Cytotoxicity against mouse RAW264.7 cells assessed as cell viability at 10 uM incubated for 24 hrs by CCK8 assay relative to control; assay type: toxicity, cell-based; settings: read-out: Activity
[5] = biological target: Replicase polyprotein 1ab (Severe acute respiratory syndrome coronavirus 2, UniProt P0DTD1)
[6] = biological target: Replicase polyprotein 1ab (Severe acute respiratory syndrome coronavirus 2) (UniProt P0DTD1); assay: Inhibition of SARS-CoV-2 3CLPro using DabcylKNSTLQSGLRK-Edans as substrate at 5 uM preincubated for 30 mins followed by substrate addition measured after 20 mins by FRET assay relative to control; settings: time 50.0 min
[7] = tested on: RAW264.7; assay: Anti-inflammatory activity against mouse RAW264.7 cells assessed as inhibition of LPS-induced NO production at 10 uM preincubated for 1 hr followed by LPS treatment measured after 24 hrs relative to control; assay type: functional; settings: time 25 hrs
[8] = biological target: Replicase polyprotein 1ab (Severe acute respiratory syndrome coronavirus 2) (UniProt P0DTD1); assay: Inhibition of SARS-CoV-2 3CLPro using DabcylKNSTLQSGLRK-Edans as substrate at 50 uM preincubated for 30 mins followed by substrate addition measured after 20 mins by FRET assay relative to control; settings: time 50.0 min
[9] = Cytotoxicity against human Huh-7 cells harboring viral replicon/EGFP/Neo genes assessed as cell viability at 5 uM incubated for 24 hrs by Cell Titer Glo assay relative to control; assay type: toxicity, cell-based; settings: read-out: Activity
[10] = Cytotoxicity against human Huh-7 cells harboring viral replicon/EGFP/Neo genes assessed as cell viability at 50 uM incubated for 24 hrs by Cell Titer Glo assay relative to control; assay type: toxicity, cell-based; settings: read-out: Activity
[11] = Cytotoxicity against human Huh-7 cells harboring viral replicon/EGFP/Neo genes assessed as cell viability incubated for 24 hrs by Cell Titer Glo assay; assay type: toxicity, cell-based

| SMILES | inhibition at 1 µM [1] [%] | viability at 24 h, 50 µM [2] [%] | viability at 24 h, 1 µM [3] [%] | viability at 24 h, 10 µM [4] [%] | IC50 [5] [nM] | inhibition [6] [%] | inhibition at 10 µM [7] [%] | inhibition [8] [%] | viability at 24 h, 5 µM [9] [%] | viability at 24 h, 50 µM [10] [%] | EC50 [5] [nM] | CC50 at 24 h [11] [nM] |
| --- | --- | --- | --- | --- | --- | --- | --- | --- | --- | --- | --- | --- |
| O=C(/C=C/c1c(Cl)c(O)c(O)c(O)c1Cl)c1ccc(F)cc1F | 35.3 | 65.8 | 108 | 91.8 | 131 | 1.1 | 79 | 1.1 |  |  |  |  |
| O=C(O)/C=C/c1c(Cl)c(O)c(O)c(O)c1Br | 39.5 | 92.3 | 93.6 | 74 | 3460 | 30.7 | -6.2 | 1.8 |  |  |  |  |
| O=C(/C=C/c1c(Cl)c(O)c(O)c(O)c1Cl)c1ccc(F)cc1Cl | 16.6 | 52.4 | 118 | 122 | 310 | 1.1 | 87.3 | 1.6 | 104 | 56.9 |  |  |
| O=C(/C=C/c1c(Cl)c(O)c(O)c(O)c1Cl)c1ccccc1F | 43.7 | 72.8 | 89 | 84.6 | 237 | 2.3 | 87.3 | 3.1 |  |  |  |  |
| O=C(/C=C/c1c(Cl)c(O)c(O)c(O)c1Cl)c1c(Cl)cc(Cl)cc1Cl | 33.3 | 13 | 78.7 | 58.5 | 404 | 1.2 | 79 | 0.7 |  |  |  |  |
| O=C(/C=C/c1c(Cl)c(O)c(O)c(O)c1Cl)c1ccc(Cl)cc1Cl | 31.2 | 21.8 | 81 | 77.2 | 306 | 0.6 | 87.3 | 0.6 |  |  |  |  |
| O=C(/C=C/c1c(Cl)c(O)c(O)c(O)c1Cl)c1c(Cl)c(O)c(O)c(O)c1Cl | 22.9 | 82.4 | 51.2 | 37 | 115 | 0 | 76.9 | 0.2 | 111 | 99.3 |  |  |
| O=C(O)/C=C/c1c(Cl)c(O)c(O)c(O)c1Cl | 27 | 82.1 | 93.8 | 92.4 | 840 | 3.1 | -14.6 | 2.9 |  |  |  |  |
| O=C(/C=C/c1c(Cl)c(O)c(O)c(O)c1Cl)c1ccc(Cl)c(Cl)c1 | 58.2 | 12.5 | 79.8 | 50 | 415 | -0.8 | 89.4 | -0.3 |  |  |  |  |
| O=C(/C=C/c1c(Cl)c(O)c(O)c(O)c1Cl)c1ccc(-c2ccc(F)cc2)cc1 | 39.5 | 11.2 | 55.5 | 33.1 | 1070 | -0.6 | 89.4 | 0.6 | 86.5 | 10.2 |  |  |
| O=C(O)[C@H](O)Cc1ccc(O)c(O)c1 |  |  |  |  | 2150 | 5.3 |  |  |  |  | > 50000 |  |
| O=C(CCc1cc(O)c(O)c(O)c1)c1ccc(F)cc1 | 20.8 | 87.6 | 117 | 103 | 1770 | 21.4 | 54.1 | 6.3 | 110 | 92.7 |  | > 100000 |
| O=C(/C=C/c1c(Cl)c(O)c(O)c(O)c1Cl)c1cccs1 | 35.3 | 112 | 99.1 | 82.8 | 216 | -1.8 | 76.9 | -0.9 |  |  |  |  |
